pIC50: −log10 of the molar value. Read-outs that look alike come from different tables or passages of the source.
Tests used:
[1] = Plasma protein binding (ultrafiltration); format: in vitro ADME; conditions: mouse or human plasma (species not given), 37° C.
Method: Plasma protein binding studies were performed as follows. Compounds were dissolved in DMSO, then diluted into either fresh or thawed samples of mouse or human plasma and incubated at 37° C. Time points of 50 μL were mixed with 100 μl of acetonitrile and centrifuged at ˜14000 rpm for 3 minutes. A 100 μL aliquot was removed from the supernatant and set aside for analysis to indicate compound in the total fraction. The remaining supernatant was transferred onto a Microcon ultrafiltration device fitted with a YM10 membrane and centrifuged to separate protein-bound material. A 50 μL aliquot of the protein-free filtrate was mixed with 100 μL of acetonitrile, centrifuged at ˜14000 rpm for 3 minutes, then 100 μL of the supernatant was collected and analyzed to determine the amount of compound not protein bound. The amount of compound in the total sample and in the protein-free fraction were determined by HPLC analysis against authentic standards.

[2] = biological target: T1, CYP3A4 (Homo sapiens, UniProt P08684); test: Cytochrome P450 inhibition (BD GenTest kit, BFC substrate), CYP3A4; format: in vitro ADME
T1 construct: purchased BD GenTest, Woburn, Mass
Text: Following the procedure of Examples 39 (when R=methyl) and 42 (when R=CF3), the additional compounds shown in Table 2 were made by replacing (2-(tert-butyldimethyl-silyloxy)-methylthiazol-4-yl)methyltri-n-butyl-phosphonium chloride with the corresponding phosphonium chloride. Cytotoxicity data (Table 2) was obtained as described in Example 48. Cytochrome P450 inhibition data (Table 3) was obtained using the initial rate method against BFC substrate.
Cytochrome P450 inhibition measurements were performed using a commercially-available kit (BD GenTest, Woburn, Mass.), using BFC as substrate against CYP3A4.

[3] = Compound solubility in phosphate-buffered saline; format: physicochemical; conditions: aqueous buffer, kinetic from dmso stock; 5 μL of 20 mg/mL DMSO stock in 95 μL phosphate-buffered saline, 0.45 micron filter, HPLC
Method: Compound solubility was determined as follows: 5 μL of stock solution (at 20 mg/mL in DMSO) was added to 95 μL of phosphate-buffered saline. After being vortexed for about 10 seconds, the solution/suspension was filtered through a 0.45 micron filter and the amount of analyte was quantitated by HPLC. Solubilities (mg/mL) determined were as follows: epothilone D, <0.06; trans-9,10-dehydroepothilone D, <0.06; 21-OH-26-F3-trans-9,10-dehydroepothilone D, 0.1; 21-amino-trans-9,10-dehydroepothilone D, >0.6; 21-amino-26-F3-trans-9,10-dehydroepothilone D, >0.6; 26-F3-trans-9,10-dehydroepothilone D, <0.06; 21-OH-trans-9,10-dehydroepothilone D, 0.1; KOSN 1635, <0.02; KOSN 1632, 0.12.

[4] = tested on: Human breast carcinoma cell line MCF-7; test: SRB cytotoxicity assay, MCF-7; format: cell-based; conditions: for pIC50: Homo sapiens, MCF7, 72 h, Table 1, 3 days, SRB, read-out: IC50 MCF-7; for IC50: Table 2, as described in Example 48, read-out: IC50 (nM) MCF-7
Method: (§1) Compounds of the invention may be screened for cytotoxicity using conventional assays well known to those skilled in the art. For example, cytotoxicity of the compounds may be determined by the SRB assay as disclosed in Skehan et al., J. Natl. Cancer Inst. 82:1107-1112 (1990), which is incorporated herein by reference. In the SRB assay, the following cultured cells are trypsinized, counted and diluted to the following concentrations per 100 μl with growth medium: MCF-7, 5000; NCI/ADR-Res, 7500; NCI-H460, 5000; A549, 5000; Skov3, 7500; and SF-268, 7500. The cells are seeded at 100 μl/well in 96-well microtiter plates. Twenty-four hours later, 100 μl of a test epothilone compound of the invention (ranging in concentration from 1000 nM to 0.001 nM diluted in growth medium) is added to each well. After incubation, with the compound for a period of days, the cells are fixed with 100 μl of 10% trichloroacetic acid (“TCA”) at 4 degrees for 1 hour, and stained with 0.2% sulforhodamine B (SRB)/1% acetic acid, and the bound SRB is then extracted with 200 μl of 10 mM Tris base. The amount of bound dye is determined by OD 515 nm, which correlates to the total cellular protein contents. The data is analyzed using standard statistical methodologies (such as those available with the software sold as KALEIDA GRAPH® by Synergy Software of Reading, Pa.) and the IC50s are calculated.
(§2) Human breast carcinoma cell line MCF-7, multi-drug resistant breast carcinoma cell line NCI/ADR, were obtained from the National Cancer Institute. Human non-small cell lung cancer cell line A549 and human ovarian cancer cell line SKOV-3 were obtained from American Type Culture Collection (Manassas, Va.). All cell lines were maintained in RPMI-1640 medium (Gibco/BRL, Rockville, Md.) supplemented with 2 mM L-glutamine, 25 mM HEPES and 10% FBS (Hyclone, Logan, Utah). Cells were maintained in a humidified incubator at 37° C. in 5% CO2.
(§3) Tumor cells were seeded in 100 μl at 5000 (MCF-7), 7500 (NCI/ADR), 5000 (A549) and 7500 (SKOV3) cells per well in 96-well plates. Cells were allowed to adhere for 24 hours. Each compound ranging from 0.001 to 1000 nM in 100 μl was added to cells in duplicate wells. After 3 days, cells were fixed at 4° C. for 1 hour with 10% trichloroacetic acid and then stained with 0.2% sulforhodamine B (SRB)/1% acetic acid for 20 minutes at room temperature. The unbound dye was rinsed away with 1% acetic acid, and the bounded SRB was then extracted with 200 μl of 10 mM Tris base. The absorbance was measured at 515 nm using a 96-well microtiter plate reader (Spectra Max 250, Molecular Devices). The IC50 values were calculated using a KaleidaGraph program. The experiments were performed twice.

[5] = tested on: human ovarian cancer cell line SKOV-3; test: SRB cytotoxicity assay, SKOV3; format: cell-based; conditions: for pIC50: Homo sapiens, SK-OV-3, 72 h, Table 1, 3 days, SRB, read-out: IC50 SKOV3; for IC50: Table 2, as described in Example 48, read-out: IC50 (nM) Skov
Method: as §1, §2, §3

[6] = tested on: multi-drug resistant breast carcinoma cell line NCI/ADR; test: SRB cytotoxicity assay, NCI/ADR; format: cell-based, human; conditions: for pIC50: Homo sapiens, NCI/ADR-RES, 72 h, Table 1, 3 days, SRB, read-out: IC50 NCI/ADR; for IC50: Table 2, as described in Example 48, read-out: IC50 (nM) NCI/ADR
Method: as §1, §2, §3

[7] = Half-life in mouse plasma
Method: […] At Time Zero, aliquotted 75 μl from each sample and added 150 μl of acetonitrile. Centrifuged the white precipitate at 13500 rpm for 3 minutes. Transferred all the clear supernatant into another microcentrifuge tube and repeated the centrifuging step (13500 rpm/3 min). Carefully pipetted 150 μl of the clear supernatant into labeled HPLC sample tubes and tried to avoid pipetting any protein pellets. The samples were analyzed by HPLC to measure remaining compound at each time point by comparison with authentic standards.

[8] = biological target: T2, CYP2C9 (Homo sapiens, UniProt P11712); test: Cytochrome P450 inhibition, CYP2C9; format: in vitro ADME
T2 construct: purchased BD GenTest, Woburn, Mass

[9] = biological target: T3, CYP2C19 (Homo sapiens, UniProt P33261); test: Cytochrome P450 inhibition, CYP2C19; format: in vitro ADME
T3 construct: purchased BD GenTest, Woburn, Mass

[10] = Half-life in human plasma; conditions: fresh human plasma
Method: Half-lives of compounds in fresh mouse and human plasma were determined by dissolving the compounds in DMSO and adding aliquots to samples of mouse or human plasma. At Time Zero, aliquotted 75 μl from each sample and added 150 μl of acetonitrile. Centrifuged the white precipitate at 13500 rpm for 3 minutes. Transferred all the clear supernatant into another microcentrifuge tube and repeated the centrifuging step (13500 rpm/3 min). Carefully pipetted 150 μl of the clear supernatant into labeled HPLC sample tubes and tried to avoid pipetting any protein pellets. The samples were analyzed by HPLC to measure remaining compound at each time point by comparison with authentic standards.

[11] = tested on: Human non-small cell lung cancer cell line A549; test: SRB cytotoxicity assay, A549; format: cell-based; conditions: for pIC50: Homo sapiens, A549, 72 h, Table 1, 3 days, SRB, read-out: IC50 A549; for IC50: Table 2, as described in Example 48, read-out: IC50 (nM) A549
Method: as §1, §2, §3

T2 sequence (P11712 whole entry): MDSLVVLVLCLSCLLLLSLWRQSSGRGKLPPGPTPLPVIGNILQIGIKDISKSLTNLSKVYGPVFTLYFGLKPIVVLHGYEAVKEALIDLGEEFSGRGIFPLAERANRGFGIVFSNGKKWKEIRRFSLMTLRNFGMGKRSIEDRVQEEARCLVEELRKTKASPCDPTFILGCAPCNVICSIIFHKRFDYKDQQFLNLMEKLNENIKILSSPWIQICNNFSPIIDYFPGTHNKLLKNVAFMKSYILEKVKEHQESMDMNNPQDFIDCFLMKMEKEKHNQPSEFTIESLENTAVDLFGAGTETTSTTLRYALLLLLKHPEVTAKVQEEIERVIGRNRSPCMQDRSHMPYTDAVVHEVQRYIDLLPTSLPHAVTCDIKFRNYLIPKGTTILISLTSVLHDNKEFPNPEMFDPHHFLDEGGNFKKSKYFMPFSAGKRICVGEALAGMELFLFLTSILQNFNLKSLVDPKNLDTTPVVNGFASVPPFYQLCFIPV
T3 sequence (P33261 whole entry): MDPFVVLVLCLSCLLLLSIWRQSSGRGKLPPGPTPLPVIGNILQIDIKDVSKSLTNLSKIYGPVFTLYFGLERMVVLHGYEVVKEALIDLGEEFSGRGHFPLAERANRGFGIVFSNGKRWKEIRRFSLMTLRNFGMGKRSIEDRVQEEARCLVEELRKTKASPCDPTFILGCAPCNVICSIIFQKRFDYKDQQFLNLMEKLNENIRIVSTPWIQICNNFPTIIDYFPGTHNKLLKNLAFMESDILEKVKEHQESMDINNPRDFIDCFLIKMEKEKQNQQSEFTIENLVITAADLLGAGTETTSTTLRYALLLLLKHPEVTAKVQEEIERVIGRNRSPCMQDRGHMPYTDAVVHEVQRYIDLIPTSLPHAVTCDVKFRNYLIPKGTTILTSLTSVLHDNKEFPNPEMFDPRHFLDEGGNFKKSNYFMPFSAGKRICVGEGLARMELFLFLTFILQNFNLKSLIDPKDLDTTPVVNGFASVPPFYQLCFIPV
T1 sequence (P08684 whole entry): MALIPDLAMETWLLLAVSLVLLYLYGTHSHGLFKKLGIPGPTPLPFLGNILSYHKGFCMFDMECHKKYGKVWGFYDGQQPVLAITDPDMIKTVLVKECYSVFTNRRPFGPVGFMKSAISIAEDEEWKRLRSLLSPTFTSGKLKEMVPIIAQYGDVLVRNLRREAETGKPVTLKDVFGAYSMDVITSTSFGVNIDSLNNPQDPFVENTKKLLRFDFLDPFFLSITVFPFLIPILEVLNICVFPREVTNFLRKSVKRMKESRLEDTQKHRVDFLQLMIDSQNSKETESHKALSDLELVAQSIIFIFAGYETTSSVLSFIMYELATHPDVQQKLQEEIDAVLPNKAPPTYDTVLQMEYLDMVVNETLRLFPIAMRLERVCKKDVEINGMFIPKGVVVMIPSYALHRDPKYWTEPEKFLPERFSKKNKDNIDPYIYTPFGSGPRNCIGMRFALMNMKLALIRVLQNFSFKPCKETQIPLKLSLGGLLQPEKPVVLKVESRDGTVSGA

| SMILES | solubility [3] [µg/mL] | pIC50 [4] | pIC50 [5] | pIC50 [6] | pIC50 [11] | IC50 [4] [nM] | IC50 [5] [nM] | IC50 [6] [nM] | IC50 [11] [nM] | also measured |
| --- | --- | --- | --- | --- | --- | --- | --- | --- | --- | --- |
| C/C1=C/C[C@@H](/C(C)=C/c2csc(C)n2)OC(=O)C[C@H](O)C(C)(C)C(=O)[C@H](C)[C@@H](O)[C@@H](C)/C=C/C1 (relative stereo) [9,10-dehydroepothilone D, trans-9,10-dehydroepothilone D] | < 60 | 8.70 | 8.21 | 8.21 | 8.33 | – | – | – | – | percentage of compound protein bound [1]: 96.6%; pIC50 [2]: 5.80; half-life ([7]; frozen mouse plasma): 0.783 h; pIC50 ([8]; human): 4.97; pIC50 ([9]; human): 5.70; half-life [10]: > 24 h |
| C/C(=C\c1csc(C)n1)[C@@H]1C/C=C(/C(F)(F)F)C/C=C/[C@H](C)[C@H](O)[C@@H](C)C(=O)C(C)(C)[C@@H](O)CC(=O)O1 (relative stereo) [26-trifluoro 9,10-dehydroepothilone D, 26-trifluoro-trans-9,10-dehydroepothilone D, reference compound] | < 60 | 8.28 | 7.66 | 7.48 | 7.96 | – | – | – | – | percentage of compound protein bound [1]: 96.5%; pIC50 [2]: 5.70; half-life ([7]; fresh mouse plasma): 2.72 h; pIC50 ([8]; human): 4.84; pIC50 ([9]; human): 5.49; half-life [10]: > 24 h |
| C/C1=C/C[C@@H](/C(C)=C/c2ccc3ccccc3n2)OC(=O)C[C@H](O)C(C)(C)C(=O)[C@H](C)[C@@H](O)[C@@H](C)/C=C/C1 [17-des(2-methyl-4-thiazolyl)-17-(2-quinolyl)-9,10-dehydropeothilone D] | – | 8.05 | 7.72 | 7.62 | 7.60 | – | – | – | – | – |
| C/C1=C/C[C@@H](/C(C)=C/c2csc(CN)n2)OC(=O)C[C@H](O)C(C)(C)C(=O)[C@H](C)[C@@H](O)[C@@H](C)/C=C/C1 [21-NH2 9,10-dehydroepothilone D, 21-amino-9,10-dehydro-epothilone D] | > 600 | 8.49 | 8.24 | 7.60 | 8.23 | – | – | – | – | percentage of compound protein bound [1]: 89.5%; pIC50 [2]: 6.21; half-life ([7]; fresh mouse plasma): 0.983 h; pIC50 ([8]; human): 6.08; pIC50 ([9]; human): 6.20; half-life [10]: > 24 h |
| C/C(=C\c1csc(CN)n1)[C@@H]1C/C=C(/C(F)(F)F)C/C=C/[C@H](C)[C@H](O)[C@@H](C)C(=O)C(C)(C)[C@@H](O)CC(=O)O1 [21-amino-9,10-dehydro-26-trifluoroepothilone D] | > 600 | 8.01 | 7.40 | 6.48 | 7.46 | – | – | – | – | – |
| C/C1=C/C[C@@H](/C(C)=C/n2nnc3ccccc32)OC(=O)C[C@H](O)C(C)(C)C(=O)[C@H](C)[C@@H](O)[C@@H](C)/C=C/C1 [KOSN-1674] | – | – | – | – | – | 34 | 50 | 180 | 42 | – |
| C/C1=C/C[C@@H](/C(C)=C/c2cccnc2)OC(=O)C[C@H](O)C(C)(C)C(=O)[C@H](C)[C@@H](O)[C@@H](C)/C=C/C1 [KOSN-1690] | – | – | – | – | – | 35 | 39 | 110 | 38 | – |
| C/C1=C/C[C@@H](/C(C)=C/c2ccc(CO)cn2)OC(=O)C[C@H](O)C(C)(C)C(=O)[C@H](C)[C@@H](O)[C@@H](C)/C=C/C1 [KOSN-1703] | – | – | – | – | – | 0.61 | 4.5 | 7.1 | 2.4 | pIC50 [8]: 5.40; pIC50 [9]: 4.99 |
| C/C1=C/C[C@@H](/C(C)=C/c2c[nH]cn2)OC(=O)C[C@H](O)C(C)(C)C(=O)[C@H](C)[C@@H](O)[C@@H](C)/C=C/C1 [KOSN-1712] | – | – | – | – | – | 20 | 37 | 220 | 31 | – |
| C/C1=C/C[C@@H](/C(C)=C/c2cc(C)on2)OC(=O)C[C@H](O)C(C)(C)C(=O)[C@H](C)[C@@H](O)[C@@H](C)/C=C/C1 [KOSN-1724] | – | – | – | – | – | 2.5 | 5.3 | 6.1 | 5.3 | pIC50 [8]: 4.89; pIC50 [9]: 4.96 |
| C/C1=C/C[C@@H](/C(C)=C/c2csc(CN3CCOCC3)n2)OC(=O)C[C@H](O)C(C)(C)C(=O)[C@H](C)[C@@H](O)[C@@H](C)/C=C/C1 [KOSN-1727] | – | – | – | – | – | 390 | 490 | 410 | 420 | – |
| COc1ccnc(/C=C(\C)[C@@H]2C/C=C(/C)C/C=C/[C@H](C)[C@H](O)[C@@H](C)C(=O)C(C)(C)[C@@H](O)CC(=O)O2)c1 [KOSN-1756] | – | – | – | – | – | 2.1 | 4 | 4.9 | 4 | pIC50 [8]: 5.15; pIC50 [9]: 5.72 |
| COC(=O)c1ccc(/C=C(\C)[C@@H]2C/C=C(/C)C/C=C/[C@H](C)[C@H](O)[C@@H](C)C(=O)C(C)(C)[C@@H](O)CC(=O)O2)nc1 [KOSN-1765] | – | – | – | – | – | 44 | 220 | 360 | 350 | – |

Reference: patent US20040152708A1, “Trans-9,10-dehydroepothilone C and D, analogs thereof and methods of making the same” (priority 2002, published 2004)
